Measurements from patent US20210353579A1, “HIGH PENETRATION COMPOSITIONS AND USES THEREOF” (Techfields Pharma Co., Ltd., priority 2006, published 2021).

Tests used:
[1] = test system: Human breast cancer cells (BCAP-37); experiment: Human breast cancer xenograft in nude mice, topical; conditions: day 42; 30 μl of 5% (1.5 mg) topically every 8 hours from day 14; control 800 ± 100
In short: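 BCAP-37 tumour tissue (2-3 mm^3) was xenografted subcutaneously into the front leg of nude BALB mice, 7 per group. Compounds were applied topically as 30 μl of 5% solution (1.5 mg) in acetone or water.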

[2] = test system: Human colon cancer cells (LS174J); experiment: Human colon cancer xenograft in nude mice, topical; conditions: day 30, about 30 μl of 5% solution (1.5 mg) topically applied
Source text: Human colon cancer cells (LS174J, 2-3 mm^3 of tumor tissue was used in each mouse) are subcutaneously xenografted into the front leg of nude mice (BALB).

[3] = test system: rats (SLAC/GK, type 2 diabetes); experiment: Blood glucose in type 2 diabetes rats, oral with food; assay type: in vivo, rat
In short: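 Compounds (dosed equivalent to 20 mg/kg of NSAIAs) mixed in food and given orally daily for 5 weeks to rats (n=7). Non-fasting blood glucose measured every 3 days at 3 pm from week 2 to week 5; blood lipids measured at end of week 5.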

[4] = test system: rats (SLAC/GK, type 2 diabetes); experiment: Blood glucose in type 2 diabetes rats, transdermal; assay type: in vivo, rat; conditions: diabetic rats (SLAC/GK)
In short: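 GK type 2 diabetic rats (n=7) received the HPPs transdermally on a shaved ~1.5 cm^2 area of the back, at a dose equal to 20 mg/kg of NSAIAs, once daily for 5 weeks. Non-fasting blood glucose was measured every 3 days at 3 pm from week 2 to week 5, and blood lipids at the end of week 5.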

CC(=O)Oc1ccccc1C(=O)O.CCN(CC)CCOC(=O)c1ccccc1OC(C)=O [P-1, diethylaminoethyl acetylsalicylate.acetylsalicylic acid salt]
Tumor size [1]: 150 ± 50 mm^3
Tumor size [2]: 420 ± 100 mm^3
Blood glucose, Diabetic rats, Average ([3]; average second to fifth week, no fasting, equal to 20 mg/kg of NSAIAs every day for 5 weeks): 6.5 ± 1 mmol/L
Blood glucose, Diabetic rats, Baseline ([3]; baseline, equal to 20 mg/kg of NSAIAs): 16.5 ± 3 mmol/L
Blood glucose, Average ([4]; average second to fifth week, no fasting, equal to 20 mg/kg of NSAIAs once per day for 5 weeks): 6.5 ± 1 mmol/L
Blood glucose, Baseline ([4]; baseline, equal to 20 mg/kg of NSAIAs once per day): 16.1 ± 3 mmol/L
